Measurements reported in US20240122939A1, “THERAPIES FOR THE TREATMENT OF DISEASES AND DISORDERS ASSOCIATED WITH ABNORMAL EXPRESSION OF CDKL5 GENE” (THE REGENTS OF THE UNIVERSITY OF CALIFORNIA, priority 2021, published 2024).

Key:
[1] = tested on: CDD spheroids (cortical neurons and astrocytes derived from human iPSCs); test: HT calcium oscillation assay in CDD spheroids (high throughput screening, Scalar Perturbation and Parameter Recovery analysis); assay type: cell-based; details: for SP ranking (Scalar Perturbation): smaller SP = closer to control; for EC50: Homo sapiens, iPSC, six concentrations 0.0003 to 1 μM, nonlinear regression fit, n=4 spheroids per concentration, read-out: EC50 (dose-response of Parameter Recovery percentage)
Text: CDD High Throughput Screening (HTS) platform development. An HTS platform for CDD was developed. Briefly, the HTS system relies on spheroids derived from human iPSCs that comprise a balanced culture of cortical neurons and astrocytes. These spheroids display quantifiable, robust and uniform spontaneous calcium oscillations which correlated with synchronous neuronal activity. The CDD HTS platform uses cells derived from CDD1 and Controll lines.
Chemical library and drug treatment. The compound library used in this study comprises a unique collection of 1112 compounds with biological activity used for neurologic research and associated assays; of which two-thirds are FDA-approved drugs (SelleckChem, Houston, TX, USA). Three-week-old CDD spheroids received chronic treatment three-times per week, during three weeks. All compounds were tested at 1 μM in three technical replicates; vehicle controls (DMSO or water) were included in multiple replicates. The dose-response assay comprehended six concentrations ranging from 0.0003 to 1 μM, in four technical replicates.
HT Calcium oscillation assay. To assess the intracellular calcium oscillations in CDD and control cortical spheroids, cells were incubated with the FLIPR Calcium 6 Kit (Molecular Devices LLC, San Jose, CA, USA). Briefly, cells were pre-loaded with Calcium 6 Dye for 2 h prior to the recording. The dye interacts with intracellular calcium and changes in fluorescence occur according to increased or decreased calcium concentration. The peaks observed correlate with synchronous neural activity in the spheroids. The kinetics of intracellular calcium oscillations was determined using the FLIPR Tetra High-Throughput Cellular Screening System (Molecular Devices LLC): the fluorescence intensity was set at 515-575 nm following excitation at 470-495 nm for 10 min at a frequency of 3 Hz; the exposure time per read was 0.4 s, the gain was set to 30, and the excitation intensity was set to 40%. The instrument temperature was kept at 37° C.
HT screening analysis. A multiparametric analysis of representative descriptors of the intracellular calcium oscillation was performed. The features used include: 1. Peak count; 2. Average (Avg) Peak Height (Amplitude); 3. Peak Height standard deviation (s.d.); 4. Avg Peak Width, 5. Peak Width s.d.; 6. Avg Peak Spacing; 7. Peak Spacing s.d.; 8. Avg Peak Rise Time; 9. Peak Rise Time s.d.; 10. Avg Peak Decay Time; 11. Peak Decay Time s.d.; 12. Class 1 Peak Count; 13. Class 2 Peak Cound; 14. Class 3 Peak Count; 15. Singular Peak Count; 16. Irregular Peak Count, and 17. Subpeak Count. For peak classification, Class 1 Peak display 100-66% of max peak height, while Class 2 and Class 3, 66-33% and 33-15%, respectively. To determine the Scalar Perturbation, the data was normalized by dividing raw parameters by the median values of controls from the same plate. Each parameter was standardized by z-score of normalized and log-transformed control values. Next, the Euclidean norm between selected parameters was calculated and averaged the Scalar Perturbation score among replicates. In the Parameter Recovery, max/min boundaries from vehicle Control were determined from corresponding plate. For each replicate, we summed the number of parameter found to be within the max/min boundaries of the Control. Next, for each replicate we divided the sum of the recovered parameter by the total number of parameters and established the percentage of parameters recovered to the Control boundaries and, averaged Parameter Recovery percentages between compound replicates.
Next, a unique library of 1112 neuronal signaling compounds was screened by chronically treating 3-week-old CDD spheroids in triplicate at 1 μM for 3 weeks (FIG. 5D; FIG. 10). The calcium peaks' baseline features were determined solely in the presence of each vehicle (DMSO or water) to avoid any confounding effect on the oscillatory activity (FIG. 5E and FIG. 10A-D). […]

CDD spheroids = test: HT cell viability (CellTiter Glo 3D Cell Viability Assay); assay type: cell-based, human; details: 1 μM, 3 weeks treatment, CDD spheroids at 6 weeks of differentiation
Method: HT cell viability. To determine any cytotoxic effect of the drug treatment on the neural culture, the CellTiter Glo 3D Cell Viability Assay (Promega, Madison, WI, USA) was performed according to the manufacturer's instructions. Briefly, following the intracellular calcium oscillation recording, the spheroids were extensively washed with PBS for removal of the calcium dye. Next, cells were incubated with CellTiter Glo Reagent for 30 min at room temperature and the number of viable cells was estimated based on the amount of ATP present in the culture. The luminescent signal was captured using a PHERAstar FSX Microplate Reader (BMG Labtech, Ortenberg, Germany).
Next, a unique library of 1112 neuronal signaling compounds was screened by chronically treating 3-week-old CDD spheroids in triplicate at 1 μM for 3 weeks (FIG. 5D; FIG. 10). The calcium peaks' baseline features were determined solely in the presence of each vehicle (DMSO or water) to avoid any confounding effect on the oscillatory activity (FIG. 5E and FIG. 10A-D). Similarly, the result from each compound was normalized against its vehicle control (DMSO or water). To detect potential toxic effects of specific drugs, spheroid size and cell viability were monitored (FIG. 5F-G).

CDD spheres = test: Cellular migration after drug treatment (outward radial migration from plated spheres); assay type: cell-based, human; details: 1 μM, spheres treated for 3 weeks, migration evaluated 8 days after plating
Method: Cellular migration. Three-week old spheres were treated for 3 additional weeks with 1 μM of selected compounds. Cellular migration was evaluated 8 days after spheres were plated onto poly-L-ornithine/laminin-coated plates. The outward radial migration was measured using NeuronJ plugin on the Fiji platform. Next, these lead compounds were investigated for their ability to ameliorate CDD cellular phenotype. Following a similar pharmacological strategy, spheres were treated for 3 weeks, and cellular migration was evaluated after plating.

[2] = tested on: Cdkl5 knockout mouse neurons; details: cited from earlier work
[3] = 1112 compounds screened at 1 μM, chronic treatment for 3 weeks, 3-week-old CDD spheroids

## N#Cc1ccc2[nH]c(O)c(-c3ccc(CN4CCOCC4)cn3)c2c1 [AZD1080]
[1]; [3]
  SP ranking (Scalar Perturbation): 12
CDD spheroids
  effect on cell viability: no effect on cell viability
CDD spheres
  rescue of outward radial cellular migration defects in CDD: able to rescue outward radial cellular migration defects

## C[C@H](NC(=O)CCC(F)(F)F)C(=O)N[C@@H]1C(=O)N(CCO)c2ncccc2-c2ccccc21 [Crenigacestat]
[1]; [3]
  SP ranking (Scalar Perturbation): 5
[1]
  EC50: 883 nM
CDD spheroids
  effect on cell viability: no effect on cell viability
CDD spheres
  rescue of outward radial cellular migration defects in CDD: able to rescue outward radial cellular migration defects

## COc1ccc2c(c1)[nH]c1c(C)nccc12 [Harmine]
[1]; 1112 compounds screened at 1 μM, chronic treatment for 3 weeks, 3-week-old CDD spheroids, higher PR = closer to control
  PR ranking (Parameter Recovery): second
[1]; [3]
  SP ranking (Scalar Perturbation): first
CDD spheroids
  effect on cell viability: excluded from the list of top candidates due to its effect on cell survival
[2]
  restoration of CDKL5-dependent synaptic defects: restore CDKL5-dependent synaptic defects

## COc1cc2c(cc1OC)CC(=O)N(CCCN(C)C[C@H]1Cc3cc(OC)c(OC)cc31)CC2 [Ivabradine]
[1]; [3]
  SP ranking (Scalar Perturbation): 10
[1]
  EC50: 41 nM
CDD spheroids
  effect on cell viability: no effect on cell viability
CDD spheres
  rescue of outward radial cellular migration defects in CDD: able to rescue outward radial cellular migration defects

## O=C(O[C@H]1CN2CCC1CC2)N1CCc2ccccc2[C@@H]1c1ccccc1 [Solifenacin]
[1]; [3]
  SP ranking (Scalar Perturbation): 28
CDD spheroids
  effect on cell viability: no effect on cell viability
CDD spheres
  rescue of outward radial cellular migration defects in CDD: able to rescue outward radial cellular migration defects
